A short description of series [1]: Drug uptake in db/db mouse skeletal muscle at 30 mg/kg, po measured at 1 to 24 hrs. It counts as ADME, organism-based, Skeletal muscle tissue. The settings on record: in vivo.
Series [2] relates to Mus musculus. Put plainly: Hypoglycemic activity in obese insulin-resistant db/db mouse assessed as decrease in fasting blood glucose level at 100 mg/kg, po qd dosed for 7 days relative to control. It counts as functional. Also noted: scale not given: the % may be the effect or the level left.
Series [3] has as its system Mus musculus. Put plainly: In vivo induction of circadian clock modulation in db/db mouse at 30 mg/kg, po. Format: functional, organism-based.
The test system of series [4] is Mus musculus. The series is described as follows: Unbound Cmax in db/db mouse at 30 mg/kg, po qd after 1 to 24 hrs. It counts as ADME, organism-based. The settings on record: in vivo.
Series [5] is described as follows: Kinetic solubility in simulated gastric fluid. Format: physicochemical. The settings on record: read-out: Kinetic_solubility.
Series [6] can be described thus: Plasma concentration in db/db mouse at 30 mg/kg, po measured at 1 to 24 hrs. It counts as ADME, organism-based. Particulars: in vivo.
Series [7] can be described thus: Drug uptake in db/db mouse brown adipose at 30 mg/kg, po measured at 1 to 24 hrs. It counts as ADME, organism-based, Brown adipose tissue. Particulars: in vivo.
Series [8] relates to Mus musculus. The series is described as follows: Antidiabetic activity in obese insulin-resistant po dosed db/db mouse assessed as reduction in blood glucose AUC administered qd for 7 days by oGTT. It counts as functional, organism-based.
In series [9] the test system is Mus musculus. The series is described as follows: Antidiabetic activity in obese insulin-resistant db/db mouse assessed as reduction in blood glucose AUC at 100 mg/kg, po qd dosed for 7 days by oGTT relative to control. It counts as functional. Further details: scale not given: the % may be the effect or the level left.
Series [10] can be described thus: Drug uptake in db/db mouse liver at 30 mg/kg, po measured at 1 to 24 hrs. It counts as ADME, organism-based. The settings on record: in vivo.
A short description of series [11]: Total Cmax in db/db mouse at 30 mg/kg, po qd after 1 to 24 hrs. Format: ADME, organism-based. Further details: dose 30 mg/kg, route oral. Particulars: in vivo.
Series [12] addresses Voltage-gated inwardly rectifying potassium channel KCNH2 (Homo sapiens, UniProt Q12809). The series is described as follows: Inhibition of human ERG.
The next series has as its system Salmonella typhimurium. The series is described as follows: Genotoxicity in Salmonella typhimurium by Ames test. The settings on record: salmonella enterica subsp. enterica serovar typhimurium. Format: toxicity, organism-based.
Series [13] can be described thus: Drug uptake in db/db mouse white adipose at 30 mg/kg, po measured at 1 to 24 hrs. Particulars: in vivo. Format: ADME, organism-based, White adipose tissue.
The nature of series [14]: Half life in db/db mouse at 30 mg/kg, po qd. Format: ADME, organism-based. Particulars: in vivo.
A short description of series [15]: MRT in db/db mouse at 30 mg/kg, po qd after 1 to 24 hrs. It counts as ADME, organism-based. Particulars: in vivo.

≈ marks a conversion by molar mass, not a printed value. Calls of active or inactive are those of the source. No cut-off for these calls is given here.

The text below walks through data of ChEMBL document CHEMBL4184118, “Carbazole-containing amides and ureas: Discovery of cryptochrome modulators as antihyperglycemic agents” (Bioorg Med Chem Lett, 2018).

The term Cmax denotes the highest concentration seen after dosing. The half-life is the time in which the quantity being followed falls by half. One may read the MRT as a mean duration of stay, worked out from the concentration-time curve.

Chain of Voltage-gated inwardly rectifying potassium channel KCNH2 (Q12809 whole entry): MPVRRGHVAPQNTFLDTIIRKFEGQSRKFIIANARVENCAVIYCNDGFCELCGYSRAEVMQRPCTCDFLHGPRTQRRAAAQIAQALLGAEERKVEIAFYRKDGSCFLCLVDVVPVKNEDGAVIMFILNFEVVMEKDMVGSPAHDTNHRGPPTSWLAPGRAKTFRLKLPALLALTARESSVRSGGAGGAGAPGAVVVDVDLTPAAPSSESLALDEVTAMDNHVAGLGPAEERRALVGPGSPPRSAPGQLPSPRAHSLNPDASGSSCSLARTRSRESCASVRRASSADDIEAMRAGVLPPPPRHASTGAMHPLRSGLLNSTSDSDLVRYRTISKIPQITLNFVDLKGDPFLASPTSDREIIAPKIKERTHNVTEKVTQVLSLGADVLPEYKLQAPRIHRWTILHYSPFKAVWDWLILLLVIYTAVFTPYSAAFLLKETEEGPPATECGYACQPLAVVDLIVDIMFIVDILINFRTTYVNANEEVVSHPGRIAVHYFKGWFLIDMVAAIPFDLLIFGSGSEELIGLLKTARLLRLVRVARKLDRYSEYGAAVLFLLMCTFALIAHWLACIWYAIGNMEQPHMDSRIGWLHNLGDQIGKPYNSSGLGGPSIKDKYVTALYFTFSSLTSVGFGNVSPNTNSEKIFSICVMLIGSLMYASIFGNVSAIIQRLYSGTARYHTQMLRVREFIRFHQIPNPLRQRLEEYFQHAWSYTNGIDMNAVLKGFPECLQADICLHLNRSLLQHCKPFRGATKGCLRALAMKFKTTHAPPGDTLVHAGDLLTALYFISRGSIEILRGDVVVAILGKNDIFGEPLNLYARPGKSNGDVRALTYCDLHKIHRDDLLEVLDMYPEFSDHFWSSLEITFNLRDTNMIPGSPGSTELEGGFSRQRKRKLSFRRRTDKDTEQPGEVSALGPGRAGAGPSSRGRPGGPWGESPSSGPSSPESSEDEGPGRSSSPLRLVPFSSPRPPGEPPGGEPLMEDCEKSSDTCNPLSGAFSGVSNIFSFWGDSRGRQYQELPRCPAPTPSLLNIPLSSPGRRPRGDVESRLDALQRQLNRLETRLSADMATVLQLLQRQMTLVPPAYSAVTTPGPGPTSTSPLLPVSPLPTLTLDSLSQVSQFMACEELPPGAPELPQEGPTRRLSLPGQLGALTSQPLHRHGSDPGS

With `O=C1NCCN1CC(O)Cn1c2ccc(F)cc2c2cc(F)ccc21` (stereo unspecified), the Drug uptake result in [1], in [6], in series [7], in series [10] and in series [13] was “Active” in each case. Besides, the Activity in the series on Mus musculus [2] was 14%; in the series with Mus musculus [8], “Dose-dependent effect”; in the series on Mus musculus [9] it was 39%; with Salmonella typhimurium, “Non-Toxic”. In addition, the result in the series with Mus musculus [3] was Active. In the series with Mus musculus [4], this molecule yielded a fCmax of 0.056 µM. The solubility kinetic in series [5] is 142 µM (≈ 48.9 µg/mL). Also, the Cmax in series [11] turned out to be 1090 nM. The “inhibition (INH)” value in series [12] is recorded as “Not Active”. In addition, the half-life in [14] was 2.83 h. Also, the mean residence time MRT in series [15] was 6.76 h.
